{"source": "paper PMC6792352", "about": "“Limited Chemical Structural Diversity Found to Modulate Thyroid Hormone Receptor in the Tox21 Chemical Library” (Environmental Health Perspectives, 2019)", "note": "Counter-ions that a name gives are not always drawn."}
{"experiment": "in vitro", "details": "rat, gh3-tre-luc cells, AC50 (uM) modified / 1000", "units": {"CC50 at 24 h": "µM"}}
{"smiles": "CCN(CC)c1ccc(C(=C2C=CC(=[N+](CC)CC)C=C2)c2ccc(S(=O)(=O)O)cc2S(=O)(=O)[O-])cc1", "note": "[Sulfan blue]", "CC50 at 24 h": "> 90"}
{"smiles": "CCOc1cc(C(C)(C)C)ccc1C1COC(c2c(F)cccc2F)=N1", "note": "(stereo not drawn) [Etoxazole]", "CC50 at 24 h": 17.5}
{"smiles": "O=P(c1ccccc1)(c1ccccc1)c1ccccc1", "note": "[Triphenylphosphine oxide]", "CC50 at 24 h": "> 90"}
{"smiles": "O=C(NC(=O)c1c(F)cccc1F)Nc1ccc(OC(F)(F)C(F)OC(F)(F)F)c(Cl)c1", "note": "(stereo not drawn) [Novaluron]", "CC50 at 24 h": "> 50"}
{"smiles": "CCN(Cc1cccnc1)C(=O)c1cccc(Cl)c1[C@]1(C)C(=O)N(Cc2ccc(OC)cc2OC)c2ccc(Cl)cc21", "note": "[SSR126768]", "CC50 at 24 h": 9.39}
{"smiles": "CCC(C)(Oc1ccc(C2(c3ccc(OC(C)(CC)C(=O)O)cc3)CCCCC2)cc1)C(=O)O", "note": "(stereo not drawn) [Clinofibrate]", "CC50 at 24 h": "> 50"}
{"smiles": "CCCCc1ccc2c(n1)[C@@H](c1ccc(OC)cc1C[C@H](C)C(=O)O)[C@H](C(=O)O)[C@H]2c1ccc2c(c1)OCO2", "note": "[MK-547]", "CC50 at 24 h": "> 90"}
{"smiles": "N#CCN(CC#N)CCN(CC#N)CC#N", "note": "[(Ethylenedinitrilo)tetraacetonitrile]", "CC50 at 24 h": "> 90"}
{"smiles": "COc1cc(Cl)ccc1Cl", "note": "[2,5-Dichloroanisole]", "CC50 at 24 h": "> 90"}
{"smiles": "C[Si](Cl)(c1ccccc1)c1ccccc1", "note": "[Chloro(methyl)diphenylsilane]", "CC50 at 24 h": "> 90"}
{"smiles": "O=C(O)/C=C/c1ccc(O)c(O)c1", "note": "[Caffeic acid]", "CC50 at 24 h": "> 90"}
{"smiles": "CCCCC/C(=C\\c1ccccc1)CO", "note": "[alpha-Amylcinnamyl alcohol]", "CC50 at 24 h": 46.6}
{"smiles": "CO/N=C(\\C(=O)N[C@@H]1C(=O)N2C(C(=O)O)=C(COC(C)=O)CS[C@H]12)c1csc(N)n1", "note": "[Cefotaxime sodium]", "CC50 at 24 h": "> 50"}
{"smiles": "COC(=O)NC(=S)Nc1ccccc1NC(=S)NC(=O)OC", "note": "[Thiophanate-methyl]", "CC50 at 24 h": "> 90"}
{"smiles": "CCCCOCCOC(=O)COc1ccc(Cl)cc1Cl", "note": "[2,4-D-Butotyl]", "CC50 at 24 h": "> 90"}
{"smiles": "CCC(C)c1cc([N+](=O)[O-])cc([N+](=O)[O-])c1OC(=O)OC(C)C", "note": "(stereo not drawn) [Dinobuton]", "CC50 at 24 h": 42.5}
{"smiles": "N[C@H](CCC(=O)O)C(=O)O", "note": "[D-Glutamic acid]", "CC50 at 24 h": "> 50"}
{"smiles": "CC(=O)OCC(CCn1cnc2cnc(N)nc21)COC(C)=O", "note": "[Famciclovir]", "CC50 at 24 h": "> 50"}
{"smiles": "O=C(Cl)c1c(Cl)c(Cl)c(C(=O)Cl)c(Cl)c1Cl", "note": "[2,3,5,6-Tetrachlorobenzene-1,4-dicarbonyl dichloride]", "CC50 at 24 h": "> 90"}
{"smiles": "C=CCN1CC[C@]23c4c5ccc(O)c4O[C@H]2C(=O)CC[C@@]3(O)[C@H]1C5", "note": "[Naloxone]", "CC50 at 24 h": "> 50"}
{"smiles": "CC(=O)Oc1cccc(C)c1", "note": "[m-Cresyl acetate]", "CC50 at 24 h": "> 50"}
{"smiles": "O=C[C@H](O)[C@@H](O)[C@H](O[C@H]1O[C@H](CO)[C@@H](O[C@H]2O[C@H](CO)[C@@H](O)[C@H](O)[C@H]2O)[C@H](O)[C@H]1O)[C@H](O)CO", "note": "[Maltotriose]", "CC50 at 24 h": "> 50"}
{"smiles": "N#CS", "note": "[Potassium thiocyanate]", "CC50 at 24 h": "> 90"}
{"smiles": "CC(=O)Nc1nnc(S(N)(=O)=O)s1", "note": "[Acetazolamide]", "CC50 at 24 h": "> 90"}
{"smiles": "CCCc1nc(C)c2c(=O)[nH]c(-c3cc(S(=O)(=O)N4CCN(CC)CC4)ccc3OCC)nn12", "note": "[Vardenafil citrate]", "CC50 at 24 h": "> 50"}
{"smiles": "C=C(C)C(=O)OCC(C)(C)COC(=O)C(=C)C", "note": "[2,2-Dimethylpropane-1,3-diyl bis(2-methylprop-2-enoate)]", "CC50 at 24 h": "> 90"}
{"smiles": "Sc1ccccc1", "note": "[Benzenethiol]", "CC50 at 24 h": "> 90"}
{"smiles": "C[C@@H]1O[C@@H](O[C@H]2C[C@@H](O)[C@]3(CO)[C@H]4[C@H](O)C[C@]5(C)[C@@H](C6=CC(=O)OC6)CC[C@]5(O)[C@@H]4CC[C@]3(O)C2)[C@H](O)[C@H](O)[C@H]1O", "note": "[Ouabain]", "CC50 at 24 h": "> 80"}
{"smiles": "CC(C)(C)c1ccc(C(=O)O)cc1", "note": "[4-tert-Butylbenzoic acid]", "CC50 at 24 h": "> 90"}
{"smiles": "COc1cc(C(=O)OC(COCCC(C)C)CN2CCOCC2)cc(OC)c1OC", "note": "(stereo not drawn) [Amoproxan]", "CC50 at 24 h": "> 50"}
{"smiles": "N#Cc1c(Cl)cccc1Cl", "note": "[Dichlobenil]", "CC50 at 24 h": "> 90"}
{"experiment": "in vitro", "details": "rat, gh3-tre-luc cells, AC50 (uM) modified / 1000, Tox21_110001=Tox21_200685; viability, 1 nM T3 present, 24 h", "units": {"CC50 at 24 h": "µM"}}
{"smiles": "O=C(Cc1ccccc1)OCc1ccccc1", "note": "[Benzyl phenylacetate]", "CC50 at 24 h": "> 90"}
{"experiment": "in vitro", "details": "rat, gh3-tre-luc cells, AC50 (uM) modified / 1000, Tox21_110001=Tox21_202291; viability, 1 nM T3 present, 24 h", "units": {"CC50 at 24 h": "µM"}}
{"smiles": "O=[N+]([O-])c1ccc(Cl)cc1", "note": "[1-Chloro-4-nitrobenzene]", "CC50 at 24 h": "> 90"}
